Tests used:
[1] = system: synthesis of LTB4 in human whole blood; test: human whole blood LTB4 production inhibition assay; format: cell-based; details: heparinized human whole blood, calcimycin-stimulated, plasma LTB4; read-out: hWB IC50
Method: Compounds are additionally tested in a human whole blood assay to determine their ability to inhibit the synthesis of LTB4 in a cellular system. Compounds are combined with heparinized human whole blood and incubated for 15 minutes at 37° C. Calcimycin ([…], prepared in phosphate-buffered saline, pH 7.4) is then added and the mixture is incubated for another 30 minutes at 37° C. The samples are centrifuged for 5 min at low speed (1500×g) and the plasma layer is removed. Plasma LTB4 concentrations are then measured using an antibody-based homogenous time-resolved fluorescence method (CisBio, Bedford, Mass.).

[2] = biological target: recombinant human FLAP protein (Homo sapiens (Human), UniProt P20292); test: FLAP binding assay (Scintillation Proximity Assay); details: displacement of [125I]L-691,831, membranes of sf9 cells expressing human FLAP; read-out: SPA IC50
recombinant human FLAP protein, sequence (P20292 whole entry): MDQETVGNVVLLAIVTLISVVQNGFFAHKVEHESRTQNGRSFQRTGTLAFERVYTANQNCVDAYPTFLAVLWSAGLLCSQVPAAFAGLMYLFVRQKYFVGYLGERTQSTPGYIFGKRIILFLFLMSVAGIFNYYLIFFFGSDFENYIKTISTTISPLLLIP
Method: Compounds are assessed for the ability to bind to FLAP in a binding assay that measures compound-specific displacement of an iodinated (^125I) FLAP inhibitor via a Scintillation Proximity Assay format (adapted from S. Charleson et al., Mol. Pharmacol., 1992, 41, 873-879).
Cell pellets produced from sf9 insect cells expressing recombinant human FLAP protein are resuspended in buffer A [15 mM Tris-HCl (pH 7.5), 2 mM MgCl2, 0.3 mM EDTA, 1 mM PMSF]. The cells are lysed with a Dounce homogenizer and the material is centrifuged at 10,000×g for 10 minutes. The supernatant is then collected and centrifuged at 100,000×g for 60 minutes. To prepare membrane protein for an assay, an aliquot of the 100,000×g pellet is resuspended in 1 ml of buffer A, Dounce homogenized, and finally subjected to polytron mixing (30 seconds). Membrane protein (25 μl, 5 μg) is mixed with WGA SPA beads (Amersham) and stirred for 1 h. To an assay plate (Perkin Elmer FlexiPlate) is added 25 μl of test compound prepared in Binding buffer [100 mM Tris (pH 7.5), 140 mM NaCl, 5% glycerol, 2 mM EDTA, 0.5 mM TCEP, 0.05% Tween 20], 25 μl of [^125I]L-691,831 (an iodinated analog of MK-591, Charleson et al. Mol. Pharmacol., 41, 873-879, 1992) and finally 50 μl of the bead/protein mixture. (final concentrations: beads, 200 μg/well; protein, 5 μg/well; [^125I] probe, 0.08 nM/well (17 nCi/well). The plates are shaken for 2 h before reading on a Microbeta plate reader. Non-specific binding is determined by the addition of 10 μM cold L-691,831 compound.

| SMILES | IC50 [1] [nM] | IC50 [2] [nM] |
| --- | --- | --- |
| CC(C)(C)n1c(-c2cc(F)ccc2C(=O)Nc2cccnc2)nc2cc(-c3cnc(N)nc3)ccc21 [Example 31, 2-[5-(2-Amino-pyrimidin-5-yl)-1-tert-butyl-1H-benzoimidazol-2-yl]-4-fluoro-N-pyridin-3-yl-benzamide] | 1950 |  |
| CCNC(=O)c1ccccc1-c1nc2cc(-c3cnc(N)nc3)ccc2n1C(C)(C)C [Example 23, 2-[5-(2-Amino-pyrimidin-5-yl)-1-tert-butyl-1H-benzoimidazol-2-yl]-N-ethyl-benzamide] | 2230 | 17.4 |
| COC(=O)c1ccccc1-c1nc2cc(-c3cnc(N)nc3)ccc2n1C(C)(C)C [Example 17, 2-[5-(2-Amino-pyrimidin-5-yl)-1-tert-butyl-1H-benzoimidazol-2-yl]-benzoic acid methyl ester] |  | 22 |
| CC(C)(C)n1c(-c2ccccc2C(=O)Nc2ccncc2)nc2cc(-c3cnc(N)nc3)ccc21 [Example 3, 2-[5-(2-Amino-pyrimidin-5-yl)-1-tert-butyl-1H-benzoimidazol-2-yl]-N-pyridin-4-yl-benzamide] | 763 | 0.91 |
| CC(C)(C)n1c(-c2ccccc2C(=O)NCC2CCCO2)nc2cc(-c3cnc(N)nc3)ccc21 (stereo not shown) [Example 18, 2-[5-(2-Amino-pyrimidin-5-yl)-1-tert-butyl-1H-benzoimidazol-2-yl]-N-(tetrahydro-furan-2-ylmethyl)-benzamide] | 2440 | 18.8 |
| CC(C)(C)n1c(-c2ccccc2C(N)=O)nc2cc(-c3cnc(N)nc3)ccc21 [Example 14, 2-[5-(2-Amino-pyrimidin-5-yl)-1-tert-butyl-1H-benzoimidazol-2-yl]-benzamide] | 1150 |  |
| CC(C)(C)NC(=O)c1ccccc1-c1nc2cc(-c3cnc(N)nc3)ccc2n1C(C)(C)C [Example 21, 2-[5-(2-Amino-pyrimidin-5-yl)-1-tert-butyl-1H-benzoimidazol-2-yl]-N-tert-butyl-benzamide] | 3290 | 14.7 |
| CNC(=O)c1cc(F)ccc1-c1nc2cc(-c3cnc(N)nc3)ccc2n1C(C)(C)C [Example 33, 2-[5-(2-Amino-pyrimidin-5-yl)-1-tert-butyl-1H-benzoimidazol-2-yl]-5-fluoro-N-methyl-benzamide] | 3080 | 20 |
| CC(C)(C)n1c(-c2ccccc2C(=O)NC2CC2)nc2cc(-c3cnc(N)nc3)ccc21 [Example 2, 2-[5-(2-Amino-pyrimidin-5-yl)-1-tert-butyl-1H-benzoimidazol-2-yl]-N-cyclopropyl-benzamide] | 2190 | 25.2 |
| CC(C)NC(=O)c1ccccc1-c1nc2cc(-c3cnc(N)nc3)ccc2n1C(C)(C)C [Example 26, 2-[5-(2-Amino-pyrimidin-5-yl)-1-tert-butyl-1H-benzoimidazol-2-yl]-N-isopropyl-benzamide] | 4900 | 34.6 |
| CC(C)(C)n1c(-c2ccccc2C(=O)Nc2cccnc2)nc2cc(-c3cnc(N)nc3)ccc21 [Example 22, 2-[5-(2-Amino-pyrimidin-5-yl)-1-tert-butyl-1H-benzoimidazol-2-yl]-N-pyridin-3-yl-benzamide] | 2250 | 1.5 |
| CC(C)(C)n1c(-c2cccc(C(=O)O)c2)nc2cc(-c3cnc(N)nc3)ccc21 [Example 16, 3-[5-(2-Amino-pyrimidin-5-yl)-1-tert-butyl-1H-benzoimidazol-2-yl]-benzoic acid] |  | 645 |
| CC(C)(C)n1c(-c2ccccc2C(=O)N2CCOCC2)nc2cc(-c3cnc(N)nc3)ccc21 [Example 28, {2-[5-(2-Amino-pyrimidin-5-yl)-1-tert-butyl-1H-benzoimidazol-2-yl]-phenyl}-morpholin-4-yl-methanone] | > 5000 | 520 |
| CNC(=O)c1ccc(C#N)cc1-c1nc2cc(-c3cnc(N)nc3)ccc2n1C(C)(C)C [Example 8, 2-[5-(2-Amino-pyrimidin-5-yl)-1-tert-butyl-1H-benzoimidazol-2-yl]-4-cyano-N-methyl-benzamide] | 94 | 7.4 |
| CN(C)C(=O)c1ccc(F)c(-c2nc3cc(-c4cnc(N)nc4)ccc3n2C(C)(C)C)c1 [Example 12, 3-[5-(2-Amino-pyrimidin-5-yl)-1-tert-butyl-1H-benzoimidazol-2-yl]-4-fluoro-N,N-dimethyl-benzamide] | > 5000 | 610 |
| CN(C)C(=O)c1ccccc1-c1nc2cc(-c3cnc(N)nc3)ccc2n1C(C)(C)C [Example 29, 2-[5-(2-Amino-pyrimidin-5-yl)-1-tert-butyl-1H-benzoimidazol-2-yl]-N,N-dimethyl-benzamide] | 3050 | 200 |
| COc1cncc(-c2ccc3c(c2)nc(-c2cccc(C(N)=O)c2)n3C(C)(C)C)c1 [Example 35, 3-[1-tert-Butyl-5-(5-methoxy-pyridin-3-yl)-1H-benzoimidazol-2-yl]-benzamide] |  | 4700 |
| CCNC(=O)c1ccc(F)cc1-c1nc2cc(-c3cnc(N)nc3)ccc2n1C(C)(C)C [Example 30, 2-[5-(2-Amino-pyrimidin-5-yl)-1-tert-butyl-1H-benzoimidazol-2-yl]-N-ethyl-4-fluoro-benzamide] | 413 |  |
| CC(C)(C)n1c(-c2cc(C(=O)O)ccc2F)nc2cc(-c3cnc(N)nc3)ccc21 [Example 15, 3-[5-(2-Amino-pyrimidin-5-yl)-1-tert-butyl-1H-benzoimidazol-2-yl]-4-fluoro-benzoic acid] | > 5000 | 220 |
| CNC(=O)c1ccccc1-c1nc2cc(-c3cnc(N)nc3)ccc2n1C(C)(C)C [Example 4, 2-[5-(2-Amino-pyrimidin-5-yl)-1-tert-butyl-1H-benzoimidazol-2-yl]-N-methyl-benzamide] | 433 | 11.4 |
| CC(C)(C)n1c(-c2cc(F)ccc2C(=O)NCc2cccnc2)nc2cc(-c3cnc(N)nc3)ccc21 [Example 32, 2-[5-(2-Amino-pyrimidin-5-yl)-1-tert-butyl-1H-benzoimidazol-2-yl]-4-fluoro-N-pyridin-3-ylmethyl-benzamide] | 939 |  |
| CNC(=O)c1cccc(F)c1-c1nc2cc(-c3cnc(N)nc3)ccc2n1C(C)(C)C [Example 34, 2-[5-(2-Amino-pyrimidin-5-yl)-1-tert-butyl-1H-benzoimidazol-2-yl]-3-fluoro-N-methyl-benzamide] | 906 | 15.8 |
| CNC(=O)c1cc(OC)ccc1-c1nc2cc(-c3cnc(N)nc3)ccc2n1C(C)(C)C [Example 7, 2-[5-(2-Amino-pyrimidin-5-yl)-1-tert-butyl-1H-benzoimidazol-2-yl]-5-methoxy-N-methyl-benzamide] | 414 | 21.9 |
| CN(C)CCNC(=O)c1ccccc1-c1nc2cc(-c3cnc(N)nc3)ccc2n1C(C)(C)C [Example 24, 2-[5-(2-Amino-pyrimidin-5-yl)-1-tert-butyl-1H-benzoimidazol-2-yl]-N-(2-dimethylamino-ethyl)-benzamide] | 2870 | 140 |
| CNC(=O)c1cc(F)c(F)cc1-c1nc2cc(-c3cnc(N)nc3)ccc2n1C(C)(C)C [Example 5, 2-[5-(2-Amino-pyrimidin-5-yl)-1-tert-butyl-1H-benzoimidazol-2-yl]-4,5-difluoro-N-methyl-benzamide] | 357 |  |
| CC(C)(C)n1c(-c2ccccc2C(=O)O)nc2cc(-c3cnc(N)nc3)ccc21 [Example 1, 2-[5-(2-Amino-pyrimidin-5-yl)-1-tert-butyl-1H-benzoimidazol-2-yl]-benzoic acid] |  | 1400 |
| CN(C(=O)c1ccccc1-c1nc2cc(-c3cnc(N)nc3)ccc2n1C(C)(C)C)c1ccccn1 [Example 27, 2-[5-(2-Amino-pyrimidin-5-yl)-1-tert-butyl-1H-benzoimidazol-2-yl]-N-methyl-N-pyridin-2-yl-benzamide] |  | 180 |
| CC(C)(C)n1c(-c2cc(C#N)ccc2C(=O)NS(C)(=O)=O)nc2cc(-c3cnc(N)nc3)ccc21 [Example 11, N-{2-[5-(2-Amino-pyrimidin-5-yl)-1-tert-butyl-1H-benzoimidazol-2-yl]-4-cyano-benzoyl}-methanesulfonamide] |  | 55.6 |
| CC(C)(C)n1c(-c2cc(C#N)ccc2C(=O)NC#N)nc2cc(-c3cnc(N)nc3)ccc21 [Example 10, 2-[5-(2-Amino-pyrimidin-5-yl)-1-tert-butyl-1H-benzoimidazol-2-yl]-4-cyano-N-cyano-benzamide] |  | 6.09 |

From patent US8829200B2, “Benzimidazole inhibitors of leukotriene production” (Boehringer Ingelheim International GmbH, priority 2010, dated 2014)
